From PubChem BioAssay AID248 (DTP/NCI, 2004)
Values joined by “and” are separate entries in the source; they are usually repeats but may differ in a detail not shown here. Equal values may be shown once. Toxic doses and inconclusive results are not listed. No stated cut-off is given here; in the data, active means T/C of 150% or more; inactive means T/C below 125%.

Test system: L1210 leukemia ip in BDF1 mice, survival T/C
Experiment: NCI In Vivo Anticancer Drug Screen. Data for tumor model L1210 Leukemia (intraperitoneal) in B6D2F1 (BDF1) mice
Conditions: endpoint: mean survival time, higher = longer survival
Method in brief: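 Transplantable tumor model; survival measured in treated vs vehicle control mice. Value = treated/control.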

[1] = dose: 25.0 mg/kg/injection, schedule: Q01DX009 (ip), vehicle: saline
[2] = dose: 50.0 mg/kg/injection, schedule: Q01DX009 (ip), vehicle: saline
[3] = dose: 100.0 mg/kg/injection, schedule: Q01DX001 (ip), vehicle: saline
[4] = dose: 100.0 mg/kg/injection, schedule: Q01DX009 (ip), vehicle: saline
[5] = dose: 100.0 mg/kg/injection, schedule: Q04DX003 (ip), vehicle: saline
[6] = dose: 400.0 mg/kg/injection, schedule: Q04DX002 (ip), vehicle: saline with Tween-80
[7] = dose: 50.0 mg/kg/injection, schedule: Q01DX009 (ip), vehicle: water
[8] = dose: 100.0 mg/kg/injection, schedule: Q01DX009 (ip), vehicle: water
[9] = dose: 100.0 mg/kg/injection, schedule: Q04DX003 (ip), vehicle: water
[10] = dose: 200.0 mg/kg/injection, schedule: Q04DX003 (ip), vehicle: water
[11] = dose: 100.0 mg/kg/injection, schedule: Q04DX002 (ip), vehicle: saline with Tween-80
[12] = dose: 200.0 mg/kg/injection, schedule: Q04DX002 (ip), vehicle: saline with Tween-80
[13] = dose: 100.0 mg/kg/injection, schedule: Q04DX003 (ip), vehicle: Klucel (hydroxypropylcellulose) (HPC)
[14] = dose: 100.0 mg/kg/injection, schedule: Q01DX001 (ip), vehicle: saline with Tween-80
[15] = dose: 200.0 mg/kg/injection, schedule: Q01DX001 (ip), vehicle: saline with Tween-80
[16] = dose: 400.0 mg/kg/injection, schedule: Q01DX001 (ip), vehicle: saline with Tween-80
[17] = dose: 100.0 mg/kg/injection, schedule: Q04DX002 (ip), vehicle: Klucel (hydroxypropylcellulose) (HPC)
[18] = dose: 200.0 mg/kg/injection, schedule: Q01DX001 (ip), vehicle: saline
[19] = dose: 400.0 mg/kg/injection, schedule: Q01DX001 (ip), vehicle: saline

Measured: T/C

Nc1ccc(N=Nc2ccc(C(=O)Nc3ccc4cc(S(=O)(=O)O)ccc4c3)cc2)c(N)c1N=Nc1ccc(N=Nc2ccc(O)c(C(=O)O)c2)cc1
inactive: dose: 25.0 mg/kg/injection, schedule: Q01DX001 (ip), vehicle: saline 94 % of control | [1] 105 % of control | dose: 25.0 mg/kg/injection, schedule: Q04DX003 (ip), vehicle: saline 109 % of control | dose: 50.0 mg/kg/injection, schedule: Q01DX001 (ip), vehicle: saline 90 % of control | [2] 94 % of control | dose: 50.0 mg/kg/injection, schedule: Q04DX003 (ip), vehicle: saline 95 % of control | [3] 97 % of control | [4] 87 % of control | [5] 102 % of control

C=CCN(CC=C)c1nc(N(CC)CC)nc(N(CC)CC)n1
inactive: dose: 25.6 mg/kg/injection, schedule: Q04DX002 (ip), vehicle: saline with Tween-80 91 % of control | dose: 64.0 mg/kg/injection, schedule: Q04DX002 (ip), vehicle: saline with Tween-80 97 % of control | dose: 160.0 mg/kg/injection, schedule: Q04DX002 (ip), vehicle: saline with Tween-80 102 % of control | [6] 112 % of control

Cc1ccc(CNCC(=O)O)cc1
inactive: [7] 102 % of control | [8] 98 % of control | dose: 100.0 mg/kg/injection, schedule: Q01DX Z (ip), vehicle: saline 96 % of control | [9] 95 % of control | dose: 200.0 mg/kg/injection, schedule: Q01DX009 (ip), vehicle: water 95 % of control | dose: 200.0 mg/kg/injection, schedule: Q01DX Z (ip), vehicle: saline 104 % of control | [10] 88 % of control

N#CC(/C=C/c1ccccc1)NCC(O)c1ccccc1 (stereo not given)
inactive: dose: 100.0 mg/kg/injection, schedule: Q01DX009 (ip), vehicle: saline sonified 95 % of control | dose: 200.0 mg/kg/injection, schedule: Q01DX009 (ip), vehicle: saline sonified 95 % of control | dose: 400.0 mg/kg/injection, schedule: Q01DX009 (ip), vehicle: saline sonified 95 % of control

O=C1OC(c2ccccc2)=N/C1=C\c1ccccc1Cl
inactive: [11] 87 % of control | [12] 94 % of control

CC(=O)NCCCCNS(=O)(=O)c1ccc(C)cc1
inactive: [13] 95 % of control | dose: 200.0 mg/kg/injection, schedule: Q04DX003 (ip), vehicle: Klucel (hydroxypropylcellulose) (HPC) 95 % of control | dose: 400.0 mg/kg/injection, schedule: Q04DX003 (ip), vehicle: Klucel (hydroxypropylcellulose) (HPC) 93 % of control

COC(=O)c1cc([N+](=O)[O-])c(Cl)c([N+](=O)[O-])c1
inactive: dose: 12.5 mg/kg/injection, schedule: Q01DX009 (ip), vehicle: Klucel (hydroxypropylcellulose) (HPC) 98 % of control | dose: 25.0 mg/kg/injection, schedule: Q01DX009 (ip), vehicle: Klucel (hydroxypropylcellulose) (HPC) 87 % of control | [13] 89 % of control

C=C(C)COC(=O)Nc1cccc(OC(=O)NC)c1
inactive: [14] 97 % of control | [15] 97 % of control | [16] 94 % of control

O=S(=O)(O)Nc1ccc(Cl)cc1
inactive: dose: 25.0 mg/kg/injection, schedule: Q04DX002 (ip), vehicle: Klucel (hydroxypropylcellulose) (HPC) 102 % of control | dose: 50.0 mg/kg/injection, schedule: Q04DX002 (ip), vehicle: Klucel (hydroxypropylcellulose) (HPC) 102 % of control | [17] 102 % of control

CS(=O)CC(N)C(=O)O (stereo not given)
inactive: [3] 97 % of control | [18] 102 % of control | [19] 103 % of control

CC1NCc2c(N)nc(N)nc21 (stereo not given)
inactive: dose: 100.0 mg/kg/injection, schedule: Q01DX001 (ip), vehicle: carboxymethylcellulose (CMC) 98 % of control | dose: 200.0 mg/kg/injection, schedule: Q01DX001 (ip), vehicle: carboxymethylcellulose (CMC) 95 % of control | dose: 400.0 mg/kg/injection, schedule: Q01DX001 (ip), vehicle: carboxymethylcellulose (CMC) 98 % of control

Clc1nc2ccccc2nc1Cl
inactive: dose: 12.5 mg/kg/injection, schedule: Q04DX003 (sc), vehicle: olive oil, sesame oil, peanut oil 98 % of control | dose: 25.0 mg/kg/injection, schedule: Q04DX003 (sc), vehicle: olive oil, sesame oil, peanut oil 109 % of control

CN(Cc1ccc2nc(N)[nH]c(=O)c2c1)c1ccc(C(=O)NC(CCC(=O)O)C(=O)O)cc1 (stereo not given)
inactive: [7] 104 % of control | [8] 113 % of control | [9] 108 % of control | [10] 100 % of control

CC(NC(=O)c1ccc(Cl)c(Cl)c1)c1ccc(-c2ccccc2)cc1 (stereo not given)
inactive: [11] 102 % of control | [12] 91 % of control | [6] 87 % of control

CCN(CC)CCOc1ccc(N)cc1
inactive: [3] 94 % of control | [18] 94 % of control | [19] 100 % of control

CNC1CCCCC1O (stereo not given)
inactive: [2] 97 % of control | [4] 91 % of control | dose: 200.0 mg/kg/injection, schedule: Q01DX009 (ip), vehicle: saline 94 % of control

Cc1c(NCO)c(=O)n(-c2ccccc2)n1C
inactive: [5] 118 % of control | dose: 200.0 mg/kg/injection, schedule: Q04DX003 (ip), vehicle: saline 94 % of control | dose: 400.0 mg/kg/injection, schedule: Q04DX003 (ip), vehicle: saline 112 % of control

CC1(C)CC(=O)C2=C(C1)Nc1ccc(Cl)cc1NC2c1cccc([N+](=O)[O-])c1 (stereo not given)
inactive: [17] 98 % of control | dose: 200.0 mg/kg/injection, schedule: Q04DX002 (ip), vehicle: Klucel (hydroxypropylcellulose) (HPC) 105 % of control | dose: 400.0 mg/kg/injection, schedule: Q04DX002 (ip), vehicle: Klucel (hydroxypropylcellulose) (HPC) 102 % of control

O=C(OCCCl)OCCCl
inactive: dose: 25.0 mg/kg/injection, schedule: Q01DX009 (ip), vehicle: saline with Tween-80 98 % of control | dose: 50.0 mg/kg/injection, schedule: Q01DX009 (ip), vehicle: saline with Tween-80 103 % of control and 91 % of control | dose: 100.0 mg/kg/injection, schedule: Q01DX009 (ip), vehicle: saline with Tween-80 93 % of control | dose: 200.0 mg/kg/injection, schedule: Q01DX009 (ip), vehicle: saline with Tween-80 92 % of control

CC1C=C2c3ccccc3CC2C2C(=O)OC(=O)C12 (stereo not given)
inactive: dose: 75.0 mg/kg/injection, schedule: Q01DX001 (ip), vehicle: saline 95 % of control | dose: 150.0 mg/kg/injection, schedule: Q01DX001 (ip), vehicle: saline 100 % of control | dose: 300.0 mg/kg/injection, schedule: Q01DX001 (ip), vehicle: saline 100 % of control

NC(N)=N/N=C/c1ccncc1
inactive: dose: 15.0 mg/kg/injection, schedule: Q01DX Z (ip), vehicle: saline 104 % of control | [1] 104 % of control | dose: 30.0 mg/kg/injection, schedule: Q01DX Z (ip), vehicle: saline 91 % of control | [2] 101 % of control | dose: 60.0 mg/kg/injection, schedule: Q01DX Z (ip), vehicle: saline 107 % of control | dose: 60.0 mg/kg/injection, schedule: Q01DX Z (oral), vehicle: saline 100 % of control | [4] 104 % of control | dose: 120.0 mg/kg/injection, schedule: Q01DX Z (ip), vehicle: saline 105 % of control | dose: 120.0 mg/kg/injection, schedule: Q01DX Z (oral), vehicle: saline 97 % of control | dose: 150.0 mg/kg/injection, schedule: Q01DX009 (ip), vehicle: saline 106 % of control | dose: 240.0 mg/kg/injection, schedule: Q01DX Z (oral), vehicle: saline 103 % of control

CC(c1ccccc1)C1CCCCC1 (stereo not given)
inactive: [14] 96 % of control | [15] 96 % of control | [16] 91 % of control
